Assay results from US9808438B2, “Method for treating mucositis” (ENZYCHEM LIFESCIENCES CORPORATION, priority 2015, dated 2017).
Several values for one entry are separate records, joined by “and”; a condition that tells them apart may be missing. Equal entries are not always repeated.

Columns and labels:
[1] = system: recurrent oral ulceration (ROU); experiment: In vivo effect of PLAG on recurrent oral ulceration in patients, self-reported scoring system; parameters: species or system human
Source text: Total 44 patients with recurrent oral ulceration (ROU) between 20 and 80 years old (34 female patients and 10 male patients, Disease; RAS ([…]), BD (27 patients), SLE (1 patient), Mean age: 49.3±9.0) were enrolled in the study. The diagnosis of ROU was made based upon the history and the physical examination on oral mucosa by physicians. We included three conditions with recurrent oral ulceration: Recurrent aphthous stomatitis (RAS), Behcet's disease (BD), Systemic lupus erythematosus (SLE). After completing baseline assessments, 250 mg of PLAG was administered to the patients orally twice a day (250 mg PLAG per tablet, 500 mg/day) for 2-4 weeks. The change of recurrent oral ulcer in the patients was evaluated at 2 or 4 weeks after the treatment by using self-reported scoring system (total 12 points), including the following three measurements: change of ulcer frequency (Likert 0-4), Change of ulcer severity: pain & size (Likert 0-4) and Change of ulcer duration (Likert 0-4).

[2] = GLP toxicity test; cited from earlier work
sepsis animal model = conditions: cecal-ligation-puncture sepsis model; cited from earlier work
[3] = system: hematopoietic stem cells and megakaryocytes; conditions: cited from earlier work
[4] = 44 patients, relation to PLAG cannot be excluded
[5] = average of 44 patients, 500 mg/day orally, 2-4 weeks

CCCCC/C=C\C/C=C\CCCCCCCC(=O)OC(COC(C)=O)COC(=O)CCCCCCCCCCCCCCC (stereo not shown) [PLAG, 1-palmitoyl-2-linoleoyl-3-acetylglycerol]
side effect of PLAG ([1]; 44 patients, 500 mg/day orally, 2-4 weeks): any clear side effect of PLAG was not identified
patients with mild dyspepsia [1, 4]: two
patients with mild skin rash [1, 4]: one
patients with mild taste change (metallic taste) [1, 4]: one
effect on symptoms of oral ulceration ([1]; administration of PLAG to the patients): significantly improves the symptoms of oral ulceration
change of ulcer duration (Likert 0-4), average [1, 5]: 1.86±0.72 and 1.86
change of ulcer frequency (Likert 0-4), average [1, 5]: 2.07±0.55 and 2.07
change of ulcer severity: pain & size (Likert 0-4), average [1, 5]: 2.13±0.68 and 2.14
total (sum of the three scores), average [1, 5]: 5.93±1.76 points and 5.93 points
significant improvement ([1]; individual patient, 1 or 0 from sum of the three scores): 1 (considered to be significantly improved when the sum of the three scores was more than 5 points)
toxicity [2]: no toxicity
survivability ratio of animals (sepsis animal model): increases survivability ratio of animals
growth-stimulating activities [3]: have growth-stimulating activities of hematopoietic stem cells and megakaryocytes
